In ChEMBL document CHEMBL1201862, “PubChem BioAssay data set” (2004):
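Each compound was tested at five concentrations against cells in 96-well plates for 48 hours. GI50 is the concentration that inhibits growth by half.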 Calls of active or inactive are those of the source. Rule as the data show it: active = GI50 up to about 1.1 µM and inactive = higher.

How the values were obtained:
Test in all cases: DTP human tumour cell line panel, 48 h
OVCAR-8 = test system: OVCAR-8
Malme-3M = test system: Malme-3M
PC-3 = test system: PC-3
SF-295 = test system: SF-295
SW-620 = test system: SW-620
RPMI-8226 = test system: RPMI-8226
MDA-N = test system: MDA-N
LOX IMVI = test system: LOX IMVI
SR = test system: SR
SK-MEL-28 = test system: SK-MEL-28
T47D = test system: T47D
U-251 = test system: U-251
HCC 2998 = test system: HCC 2998
IGROV-1 = test system: IGROV-1
A549 = test system: A549
MCF7 = test system: MCF7
SNB-19 = test system: SNB-19
SK-MEL-2 = test system: SK-MEL-2

Measured: GI50

O=C(Nn1c(-c2ccccc2)nc2ccccc2c1=O)c1ccc([N+](=O)[O-])cc1
inactive: OVCAR-8 > 100 µM | Malme-3M > 100 µM | PC-3 > 100 µM | SF-295 > 100 µM | SW-620 > 100 µM | RPMI-8226 > 100 µM | MDA-N > 100 µM | LOX IMVI > 100 µM | SR > 100 µM | SK-MEL-28 72.3 µM | T47D > 100 µM | U-251 > 100 µM | HCC 2998 > 100 µM | IGROV-1 > 100 µM | A549 > 100 µM | MCF7 58.7 µM | SNB-19 > 100 µM

CCNCC(O)COc1ccc2c(c1)[n+]([O-])nc(N)[n+]2[O-] (stereo not drawn)
inactive: OVCAR-8 56 µM | PC-3 24.7 µM | SF-295 34.4 µM | SW-620 32.7 µM | RPMI-8226 61.9 µM | MDA-N > 100 µM | LOX IMVI 14.3 µM | SR 45.5 µM | SK-MEL-28 > 100 µM | T47D 81.8 µM | SK-MEL-2 39.6 µM | U-251 42.7 µM | IGROV-1 36.3 µM | A549 24.2 µM | MCF7 74 µM | SNB-19 61.2 µM

COc1ccc(C(OCC2OC(n3cnc4c(=O)n(Cc5ccccc5[N+](=O)[O-])nnc43)C(O)C2O)(c2ccccc2)c2ccc(OC)cc2)cc1 (stereo not drawn)
inactive: OVCAR-8 8.11 µM | Malme-3M 14.7 µM | PC-3 3.85 µM | SF-295 5.97 µM | SW-620 17.6 µM | RPMI-8226 3.36 µM | MDA-N 7.52 µM | LOX IMVI 6.85 µM | SK-MEL-28 16.7 µM | T47D 11.5 µM | SK-MEL-2 14.7 µM | U-251 11 µM | HCC 2998 6.97 µM | IGROV-1 10.9 µM | A549 5.57 µM | MCF7 4.28 µM | SNB-19 44.9 µM

C=C(C)[C@H]1CC23C(=O)C(C(=O)C(C)C)=C(O)[C@](C)(C[C@H]2C1(C)C)C3=O [LALIBINONE B]
inactive: OVCAR-8 17.9 µM | Malme-3M 14.3 µM | PC-3 12.6 µM | SF-295 15.1 µM | SW-620 17.8 µM | RPMI-8226 12.8 µM | MDA-N 18.9 µM | LOX IMVI 20.7 µM | SR 14.5 µM | SK-MEL-28 15 µM | T47D 30.9 µM | SK-MEL-2 15.9 µM | U-251 19.1 µM | IGROV-1 12.5 µM | A549 20.3 µM | MCF7 15.3 µM | SNB-19 25.8 µM

CCOC(=O)c1c(SCCO)n(-c2ccccc2)c(=S)n(-c2ccccc2)c1=O
inactive: OVCAR-8 > 100 µM | Malme-3M > 100 µM | PC-3 > 100 µM | SF-295 > 100 µM | SW-620 > 100 µM | RPMI-8226 > 100 µM | MDA-N > 100 µM | LOX IMVI > 100 µM | SR > 100 µM | SK-MEL-28 > 100 µM | T47D > 100 µM | SK-MEL-2 > 100 µM | U-251 > 100 µM | IGROV-1 > 100 µM | A549 > 100 µM | MCF7 > 100 µM | SNB-19 > 100 µM

C1COCCOP2(N3CC3)=NP(N3CC3)(=NP(N3CC3)(N3CC3)=N2)OCCOCCO1 (stereo not drawn)
inactive: OVCAR-8 > 100 µM | Malme-3M > 100 µM | PC-3 > 100 µM | SF-295 > 100 µM | SW-620 > 100 µM | RPMI-8226 > 100 µM | MDA-N > 100 µM | LOX IMVI 25.4 µM | SR 50.4 µM | T47D 70.3 µM | U-251 > 100 µM | IGROV-1 > 100 µM | A549 > 100 µM | MCF7 > 100 µM | SNB-19 > 100 µM

CCOC(=O)CCC(NC(=O)N1CCN(c2c(C)nc(C)nc2O)CC1)C(=O)OCC (stereo not drawn)
inactive: OVCAR-8 > 100 µM | Malme-3M > 100 µM | PC-3 > 100 µM | SF-295 > 100 µM | SW-620 > 100 µM | RPMI-8226 > 100 µM | MDA-N > 100 µM | LOX IMVI > 100 µM | SR > 100 µM | SK-MEL-28 > 100 µM | T47D > 100 µM | U-251 > 100 µM | HCC 2998 > 100 µM | IGROV-1 > 100 µM | A549 > 100 µM | MCF7 > 100 µM | SNB-19 > 100 µM

CC(C)CCC[C@@H](C)C1CCC2[C@@H]3CCC4C[C@@H](NS(C)(=O)=O)CC[C@]4(C)C3CC[C@@]21C (stereo partly drawn)
inactive: OVCAR-8 > 100 µM | Malme-3M > 100 µM | PC-3 > 100 µM | SF-295 > 100 µM | SW-620 > 100 µM | RPMI-8226 > 100 µM | MDA-N > 100 µM | LOX IMVI > 100 µM | SR > 100 µM | SK-MEL-28 > 100 µM | T47D > 100 µM | SK-MEL-2 > 100 µM | U-251 > 100 µM | IGROV-1 > 100 µM | A549 > 100 µM | MCF7 > 100 µM | SNB-19 > 100 µM
